Test results from patent US20230346810A1, “ENDOGENOUS STABILIZATION OF CANNABINOIDS” (Abstrax Tech Inc., priority 2022, published 2023).

Tests used:
[1] = Color change / oxidation of cannabinoid oils on exposure to air (visual); format: physicochemical; settings: about 5% CBDA by weight added, homogenized under mild heat (about 70° C.)
[2] = UV-Visible spectroscopy of color purity of THC oils; format: physicochemical; settings: 5% by weight CBDA added, versus sample without CBDA; FIG. 8
Method: The color purities of THC oils with and without acidic cannabinoids were measured using a LabTech BlueStar A UV-Vis Spectrophotometer. The data collection range was from 250 nm to 1100 nm at a scan rate of 3 nm per second. About 1 g of sample was added to scintillation vial followed by addition of 5 mL of ethanol. The solution was agitated for 2 min in order to fully dissolve the oil and transferred to a UV-Vis quartz cuvette. An ethanol background was collected prior to running the samples to reduce solvent.

## CCCCCc1cc(O)c2c(c1)OC(C)(C)[C@@H]1CCC(C)=C[C@@H]21 [Sample D9-THC, Δ^9-tetrahydrocannabinol]
[1]
  color of solution after CBDA addition: yellow solution with minimal discoloration

## CCCCCc1cc(O)c2c(c1)OC(C)(C)[C@@H]1CC=C(C)C[C@@H]21 [Sample D8-THC, Δ8-tetrahydrocannabinol]
[2]
  visible absorption after CBDA addition (UV-Visible spectra): less visible absorption
